Data: patent US20070037788A1, “Tricyclic steroid hormone nuclear receptor modulators” (Eli Lilly and Company, priority 2003, published 2007)

Molecular target: T1, human MR (Homo sapiens, UniProt P08235)
T1 construct: The full length human MR gene is cloned from a human kidney or human brain cDNA library; made in house; host or cells: SF9 insect cells (baculovirus)
T1 sequence (P08235 1-984): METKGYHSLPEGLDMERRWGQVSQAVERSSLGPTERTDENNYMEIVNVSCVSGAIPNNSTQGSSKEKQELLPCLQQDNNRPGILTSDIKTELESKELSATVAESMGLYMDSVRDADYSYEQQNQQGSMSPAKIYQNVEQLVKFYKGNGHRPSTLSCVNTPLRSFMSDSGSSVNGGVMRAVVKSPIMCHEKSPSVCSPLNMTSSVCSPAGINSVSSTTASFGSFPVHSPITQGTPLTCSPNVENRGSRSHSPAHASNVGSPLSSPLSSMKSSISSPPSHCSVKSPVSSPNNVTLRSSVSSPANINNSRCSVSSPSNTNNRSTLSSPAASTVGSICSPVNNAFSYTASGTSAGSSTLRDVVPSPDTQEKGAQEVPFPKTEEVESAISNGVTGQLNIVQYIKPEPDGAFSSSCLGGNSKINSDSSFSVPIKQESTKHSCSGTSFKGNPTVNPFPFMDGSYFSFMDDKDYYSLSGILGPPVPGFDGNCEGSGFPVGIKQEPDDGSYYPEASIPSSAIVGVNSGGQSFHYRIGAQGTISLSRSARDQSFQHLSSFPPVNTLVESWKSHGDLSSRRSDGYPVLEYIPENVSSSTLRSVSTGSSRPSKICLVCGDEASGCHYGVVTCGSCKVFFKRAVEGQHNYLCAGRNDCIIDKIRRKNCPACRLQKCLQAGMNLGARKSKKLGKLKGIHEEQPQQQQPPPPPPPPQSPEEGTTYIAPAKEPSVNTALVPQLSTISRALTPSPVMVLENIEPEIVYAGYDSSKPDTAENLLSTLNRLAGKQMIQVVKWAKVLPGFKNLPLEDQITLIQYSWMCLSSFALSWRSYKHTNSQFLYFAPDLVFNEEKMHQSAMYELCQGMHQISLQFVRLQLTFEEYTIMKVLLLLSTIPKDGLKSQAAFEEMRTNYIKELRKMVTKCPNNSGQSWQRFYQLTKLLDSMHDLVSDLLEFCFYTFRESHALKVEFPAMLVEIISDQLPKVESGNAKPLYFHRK
Assay: Mineralocorticoid Receptor Binding Assay (Method 1)
Conditions: [3H]-aldosterone
Method: The full length human MR gene is cloned from a human kidney or human brain cDNA library. Briefly, using synthetic oligonucleotide primers (Eli Lilly and Company, Indianapolis) directed to nucleotides 20-54 and 3700-3666 of the human MR, polymerase chain reaction (PCR) is performed under standard conditions using a human cDNA library. The PCR reaction is performed in a final volume of 50 μl containing about 1 μl of a 50× stock solution of polymerase; about 1 μl of a 50× stock solution of DNTP; about 5 μl of an appropriate PCR buffer; about 1 μl of each primer; about 5 μl of a H. kidney or H. brain cDNA library; and about 36 μl of water. The reaction is allowed to denature for about 30 seconds at 95 degrees Celsius, anneal for about 30 seconds at 55 degrees Celsius, and extend for about 5 minutes at 72 degrees Celsius, the sequence being repeated for a total of about 35 cycles. The desired PCR product (3.68 Kb) is confirmed by gel electrophoresis and subsequently cut from the gel and stored at about −20 degrees Celsius until extraction. To extract the cDNA product from the agarose gel, the QIAEX II Gel Extraction protocol (QIAGEN, Inc.) is employed according to the manufacturer's instructions. Following extraction, the MR cDNA is cloned into an appropriate cloning vector (Zero Blunt TOPO PCR Cloning Kit (Invitrogen, Inc.) and a pAcHLT-baculovirus transfer vector (B.D./Pharminogen), then expressed in SF9 insect cells, essentially according to manufacturer's instructions. Sf9 cells are grown at a scale where gram quantity cell pellets are obtained for subsequent use in the MR binding assay. Harvested cell pellets are lysed by repeated freeze-thaw cycles (about 4) in a suitable lysis buffer then centrifuged at about 1×10^3 G (with the supernatant being saved for future assays).
MR binding assays are performed in a final total volume of about 250 μl containing about 20-25 μg of protein and 0.5 nM of [^3H]-aldosterone plus varying concentrations of test compound or vehicle. The assay binding buffer consists of 30 mM sodium molybdate, 30 mM of TRIS-HCl, 5 mM sodium phosphate, 5 mM sodium pyrophosphate, and about 10% glycerol, pH=7.5.
Briefly, assays are prepared at RT in 96-well Falcon 3072 plates, each well containing 210 μl of binding buffer, 10 μl of [^3H]-aldosterone, 10 μl of test compound/vehicle, and 20 μl of the resuspended receptor protein extract. Incubations are carried out at 4 degrees Celsius with shaking for about 16 hours. 200 μl aliquots of each incubation are filtered onto Millipore HA 0.45 micron 96-well filter plates, pre-moistened with cold 30 mM TRIS-HCl. The filter plates are suctioned dry with vacuum and immediately washed 3× with cold 30 mM TRIS-HCl. The plates are then punched out and the amount of receptor-ligand complex is determined by liquid scintillation counting using 4 ml of Ready Protein Plus™ liquid scintillation cocktail.

Ki [nM] | SMILES
< 500 | CCN1CC[C@H](n2c(=O)[nH]c3cc(/C=C4/c5ccc(F)cc5OCc5c(F)cccc54)ccc32)C1 [Example 44]
< 500 | CN1CC[C@H](n2c(=O)[nH]c3cc(/C=C4/c5ccc(F)cc5OCc5c(F)cccc54)ccc32)C1 [Example 45]
< 500 | CCN1CC[C@@H](n2c(=O)[nH]c3cc(/C=C4/c5ccc(F)cc5OCc5c(F)cccc54)ccc32)C1 [Example 46]
